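1) Cells in 96-well plates. 2) Compound, 48 h, 5 concentrations. 3) Linear interpolation between surrounding doses. 4) Unreached endpoint = highest concentration. GI50 = concentration required for 50% inhibition of growth. TGI: total growth inhibition.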
Columns and labels:
Assay in all cases: NCI anticancer screen, dose series, 48 h
UACC-257 melanoma = test system: UACC-257 melanoma
OVCAR-8 ovarian = test system: OVCAR-8 ovarian
SK-OV-3 ovarian = test system: SK-OV-3 ovarian
COLO 205 colon = test system: COLO 205 colon
SF-268 CNS = test system: SF-268 CNS
OVCAR-5 ovarian = test system: OVCAR-5 ovarian
PC-3 prostate = test system: PC-3 prostate
HCC-2998 colon = test system: HCC-2998 colon
NCI-H522 lung = test system: NCI-H522 lung
SF-539 CNS = test system: SF-539 CNS
HL-60(TB) leukemia = test system: HL-60(TB) leukemia
SK-MEL-28 melanoma = test system: SK-MEL-28 melanoma
HT29 colon = test system: HT29 colon
MOLT-4 leukemia = test system: MOLT-4 leukemia
A549 NSCLC = test system: A549 NSCLC
SF-295 CNS = test system: SF-295 CNS
UACC-62 melanoma = test system: UACC-62 melanoma
ACHN renal = test system: ACHN renal
NCI-H23 lung = test system: NCI-H23 lung
MDA-MB-231 breast = test system: MDA-MB-231 breast
TK-10 renal = test system: TK-10 renal
HOP-92 NSCLC = test system: HOP-92 NSCLC
U251 CNS = test system: U251 CNS
MALME-3M melanoma = test system: MALME-3M melanoma
NCI/ADR-RES ovarian = test system: NCI/ADR-RES ovarian
EKVX NSCLC = test system: EKVX NSCLC
NCI-H226 lung = test system: NCI-H226 lung
M14 melanoma = test system: M14 melanoma
MDA-MB-468 breast = test system: MDA-MB-468 breast
A498 renal = test system: A498 renal
LOX IMVI melanoma = test system: LOX IMVI melanoma
OVCAR-4 ovarian = test system: OVCAR-4 ovarian
SW-620 colon = test system: SW-620 colon
MCF7 breast = test system: MCF7 breast
T-47D breast = test system: T-47D breast
SNB-75 CNS = test system: SNB-75 CNS
CAKI-1 renal = test system: CAKI-1 renal
OVCAR-3 ovarian = test system: OVCAR-3 ovarian
UO-31 renal = test system: UO-31 renal
SK-MEL-2 melanoma = test system: SK-MEL-2 melanoma
HOP-62 NSCLC = test system: HOP-62 NSCLC
CCRF-CEM leukemia = test system: CCRF-CEM leukemia
IGROV1 ovarian = test system: IGROV1 ovarian
K-562 leukemia = test system: K-562 leukemia
HCT-15 colon = test system: HCT-15 colon
NCI-H460 lung = test system: NCI-H460 lung
SN12C renal = test system: SN12C renal
KM12 colon = test system: KM12 colon
DU-145 prostate = test system: DU-145 prostate
BT-549 breast = test system: BT-549 breast
SK-MEL-5 melanoma = test system: SK-MEL-5 melanoma
SR leukemia = test system: SR leukemia
RPMI-8226 leukemia = test system: RPMI-8226 leukemia
HCT-116 colon = test system: HCT-116 colon
SNB-19 CNS = test system: SNB-19 CNS
MDA-MB-435 = test system: MDA-MB-435
HS 578T breast = test system: HS 578T breast
786-0 renal = test system: 786-0 renal

C[C@H]1[C@H](OC(=O)CCC(=O)N(CCCc2cn(-c3ccc(CN4CCOCC4)cc3)nn2)CCNc2ccnc3cc(Cl)ccc23)O[C@@H]2OC3(C)CC[C@H]4[C@H](C)CC[C@@H]1[C@@]24OO3
GI50 (UACC-257 melanoma): 1190 nM | TGI (UACC-257 melanoma): 2820 nM | GI50 (OVCAR-8 ovarian): 801 nM | TGI (OVCAR-8 ovarian): > 11800 nM | GI50 (SK-OV-3 ovarian): > 11800 nM | TGI (SK-OV-3 ovarian): > 11800 nM | GI50 (COLO 205 colon): 623 nM | TGI (COLO 205 colon): > 11800 nM | GI50 (SF-268 CNS): 2720 nM | TGI (SF-268 CNS): > 11800 nM | GI50 (OVCAR-5 ovarian): 1310 nM | TGI (OVCAR-5 ovarian): > 11800 nM | GI50 (PC-3 prostate): 234 nM | TGI (PC-3 prostate): > 11800 nM | GI50 (HCC-2998 colon): 3130 nM | TGI (HCC-2998 colon): > 11800 nM | GI50 (NCI-H522 lung): 505 nM | TGI (NCI-H522 lung): > 11800 nM | GI50 (SF-539 CNS): 1590 nM | TGI (SF-539 CNS): 3230 nM | GI50 (HL-60(TB) leukemia): 359 nM | TGI (HL-60(TB) leukemia): 1440 nM | GI50 (SK-MEL-28 melanoma): 1430 nM | TGI (SK-MEL-28 melanoma): 3620 nM | GI50 (HT29 colon): 745 nM | TGI (HT29 colon): 3880 nM | GI50 (MOLT-4 leukemia): 317 nM | TGI (MOLT-4 leukemia): 3270 nM | GI50 (A549 NSCLC): 3250 nM | TGI (A549 NSCLC): > 11800 nM | GI50 (SF-295 CNS): 2470 nM | TGI (SF-295 CNS): > 11800 nM | GI50 (UACC-62 melanoma): 1150 nM | TGI (UACC-62 melanoma): > 11800 nM | GI50 (ACHN renal): 2740 nM | TGI (ACHN renal): > 11800 nM | GI50 (NCI-H23 lung): 2280 nM | TGI (NCI-H23 lung): > 11800 nM | GI50 (MDA-MB-231 breast): 3050 nM | TGI (MDA-MB-231 breast): > 11800 nM | GI50 (TK-10 renal): 11700 nM | TGI (TK-10 renal): > 11800 nM | GI50 (HOP-92 NSCLC): 506 nM | TGI (HOP-92 NSCLC): 4650 nM | GI50 (U251 CNS): 1420 nM | TGI (U251 CNS): 8270 nM | GI50 (MALME-3M melanoma): 1510 nM | TGI (MALME-3M melanoma): 3040 nM | GI50 (NCI/ADR-RES ovarian): 2640 nM | TGI (NCI/ADR-RES ovarian): > 11800 nM | GI50 (EKVX NSCLC): 1080 nM | TGI (EKVX NSCLC): > 11800 nM | GI50 (NCI-H226 lung): 2540 nM | TGI (NCI-H226 lung): > 11800 nM | GI50 (M14 melanoma): 1590 nM | TGI (M14 melanoma): 3450 nM | GI50 (MDA-MB-468 breast): 943 nM | TGI (MDA-MB-468 breast): 4920 nM | GI50 (A498 renal): > 11800 nM | TGI (A498 renal): > 11800 nM | GI50 (LOX IMVI melanoma): 692 nM | TGI (LOX IMVI melanoma): 3540 nM | GI50 (OVCAR-4 ovarian): 869 nM | TGI (OVCAR-4 ovarian): > 11800 nM | GI50 (SW-620 colon): 533 nM | TGI (SW-620 colon): > 11800 nM | GI50 (MCF7 breast): 821 nM | TGI (MCF7 breast): > 11800 nM | GI50 (T-47D breast): 460 nM | TGI (T-47D breast): > 11800 nM | GI50 (SNB-75 CNS): 11600 nM | TGI (SNB-75 CNS): > 11800 nM | GI50 (CAKI-1 renal): 4560 nM | TGI (CAKI-1 renal): > 11800 nM | GI50 (OVCAR-3 ovarian): 681 nM | TGI (OVCAR-3 ovarian): > 11800 nM | GI50 (UO-31 renal): 1980 nM | TGI (UO-31 renal): > 11800 nM | GI50 (SK-MEL-2 melanoma): 3160 nM | TGI (SK-MEL-2 melanoma): > 11800 nM | GI50 (HOP-62 NSCLC): 10800 nM | TGI (HOP-62 NSCLC): > 11800 nM | GI50 (CCRF-CEM leukemia): 1020 nM | TGI (CCRF-CEM leukemia): > 11800 nM | GI50 (IGROV1 ovarian): 3730 nM | TGI (IGROV1 ovarian): > 11800 nM | GI50 (K-562 leukemia): 330 nM | TGI (K-562 leukemia): 2390 nM | GI50 (HCT-15 colon): 389 nM | TGI (HCT-15 colon): 4190 nM | GI50 (NCI-H460 lung): 2200 nM | TGI (NCI-H460 lung): 9500 nM | GI50 (SN12C renal): 2980 nM | TGI (SN12C renal): > 11800 nM | GI50 (KM12 colon): 596 nM | TGI (KM12 colon): > 11800 nM | GI50 (DU-145 prostate): 6840 nM | TGI (DU-145 prostate): > 11800 nM | GI50 (BT-549 breast): 899 nM | TGI (BT-549 breast): 8420 nM | GI50 (SK-MEL-5 melanoma): 1190 nM | TGI (SK-MEL-5 melanoma): 2580 nM | GI50 (SR leukemia): 408 nM | TGI (SR leukemia): 2470 nM | GI50 (RPMI-8226 leukemia): 406 nM | TGI (RPMI-8226 leukemia): 5620 nM | GI50 (HCT-116 colon): 372 nM | TGI (HCT-116 colon): 2680 nM | GI50 (SNB-19 CNS): 7350 nM | TGI (SNB-19 CNS): > 11800 nM | GI50 (MDA-MB-435): 800 nM | TGI (MDA-MB-435): 8910 nM | GI50 (HS 578T breast): 1230 nM | TGI (HS 578T breast): 8090 nM | GI50 (786-0 renal): 1530 nM | TGI (786-0 renal): 3540 nM

— PubChem BioAssay (NCI)
